US7267715B2, “Ink and ink set” (Fujifilm Corporation, priority 2003, dated 2007)

Test: Oxidation potential by cyclic voltammetry
Format: physicochemical
Conditions: test method of the specification (dimethylformamide, tetrapropylammonium perchlorate)
Procedure: More specifically, a test sample is dissolved to a concentration of 1×10^−6 to 1×10^−4 mol/liter in a solvent such as dimethylformamide or acetonitrile containing a supporting electrolyte such as sodium perchlorate or tetrapropylammonium perchlorate and the oxidation potential is measured as a value to SCE (saturated calomel electrode) using a cyclic voltammetry. This value sometimes deviates on the order of tens of millivolt due to the effect of liquid junction potential, liquid resistance of sample solution, or the like, however, the reproducibility of potential can be guaranteed by adding a standard sample (for example, hydroquinone). In order to univocally specify the potential, in the present invention, the value (SCE standard) measured in a dimethylformamide (concentration of dye: 0.001·moldm^−3) containing 0.1 mol·dm^−3 of tetrapropylammonium perchlorate as the supporting electrolyte is used as the oxidation potential of the dye. In the case of a water-soluble dye, the dye is sometimes hardly dissolved directly in N,N-dimethylformamide. In such a case, the oxidation potential is measured after dissolving the dye by using water in a small amount as much as possible and then diluting it with N,N-dimethylformamide to have a water content of 2% or less.

Row | Compound | oxidation potential
1 | Cc1c(C#N)c(Nc2ccc(S(=O)(=O)[O-])cc2)nc(Nc2ccc(S(=O)(=O)[O-])cc2)c1N=Nc1sc(N=Nc2cc(C(=O)[O-])cc(C(=O)[O-])c2)cc1C#N.[Li+].[Li+].[Li+].[Li+] [BK-4] | 1.32 V (vs SCE)
2 | Cc1cc(C)c(S(=O)(=O)[O-])c(C)c1Nc1nc(N(c2nc3ccc(S(=O)(=O)[O-])cc3s2)c2c(C)cc(C)c(S(=O)(=O)O)c2C)ccc1/N=N/c1c(C#N)c(C(C)(C)C)nn1-c1nc2ccc(S(=O)(=O)[O-])cc2s1.[K+].[K+].[Na+] [M-3] | 1.29 V (vs SCE)
3 | CC(C)(C)c1nn(-c2nc(Nc3cc(C(=O)[O-])cc(C(=O)[O-])c3)nc(Nc3cc(C(=O)[O-])cc(C(=O)[O-])c3)n2)c(N)c1/N=N/c1ncns1.[Na+].[Na+].[Na+].[Na+] [Y-2] | 1.25 V (vs SCE)
4 | CC(C)CSc1nnc(/N=N/c2c(C(C)(C)C)nn(-c3nc(Nc4cc(C(=O)[O-])cc(C(=O)[O-])c4)nc(Nc4cc(C(=O)[O-])cc(C(=O)[O-])c4)n3)c2N)s1.[K+].[K+].[K+].[K+] [Y-3] | 1.22 V (vs SCE)
